Experimental data from US6222043A, “Methods of preparing novel dipeptide compounds or pharmaceutically acceptable salts thereof” (Japan Energy Corporation, priority 1995, dated 2001).

Assay: Pharmacokinetics in rats, intravenous or intraduodenal administration
Type: in vivo
Details: rat
Protocol: Metabolic characteristics of the dipeptide compounds of the present invention was evaluated using rats. Tested compounds dissolved in vehicle was administered intraduodenally or intravenously. After administration, blood was taken and the concentration of residual tested compound in plasma was analyzed. The dosage of the tested compound was described in table 3.

| Compound | AUC (i.d., 10.0 mg/kg) [µg/mL/min] | F (bioavailability on intraduodenal administration) (i.d., 10.0 mg/kg) [%] | AUC (i.v., 10.0 mg/kg) [µg/mL/min] | MRT (i.v., 10.0 mg/kg) [min] | t1/2 (λ) (i.v., 10.0 mg/kg) [min] | AUC (i.d., 20.0 mg/kg) [µg/mL/min] | F (bioavailability on intraduodenal administration) (i.d., 20.0 mg/kg) [%] |
| --- | --- | --- | --- | --- | --- | --- | --- |
| Cc1ccccc1CNC(=O)[C@@H]1CSCN1C(=O)[C@@H](O)[C@H](Cc1ccccc1)NC(=O)c1cccc(O)c1C [Compound of example 34, (R)-N-(2-methylbenzyl)-3-[(2S,3S)-3-(3-hydroxy-2-methylbenzoyl)amino-2-hydroxy-4-phenylbutanoyl]-1,3-thiazolidine-4-carboxamide] | 40 | 32.26 | 124 | 31.9 | 40.51 |  |  |
| CCc1c(O)cccc1C(=O)N[C@@H](Cc1ccccc1)[C@H](O)C(=O)N1CSC(C)(C)[C@H]1C(=O)NC(C)(C)C [Compound of example 36, (R)-N-tert-butyl-3-[(2S,3S)-3-(2-ethyl-3-hydroxybenzoyl)amino-2-hydroxy-4-phenylbutanoyl]-5,5-dimethyl-1,3-thiazolidine-4-carboxamide] | 64 | 37.01 | 174 | 88.9 | 83.90 |  |  |
| Cc1c(O)cccc1C(=O)N[C@@H](Cc1ccccc1)[C@H](O)C(=O)N1CSC(C)(C)[C@H]1C(=O)NC(C)(C)C [Compound of example 22, (R)-N-tert-butyl-3-[(2S,3S)-2-hydroxy-3-[3-hydroxy-2-methylbenzoyl]amino-4-phenylbutanoyl]-5,5-dimethyl-1,3-thiazolidine-4-carboxamide] |  |  | 111 | 22.9 | 23.89 | 106 | 47.53 |
| Cc1c(O)cccc1C(=O)N[C@@H](Cc1ccccc1)[C@H](O)C(=O)N1CSC[C@H]1C(=O)NC(C)(C)C [Compound of example 21, (R)-N-tert-butyl-3-[(2S,3S)-2-hydroxy-3-[3-hydroxy-2-methylbenzoyl]amino-4-phenylbutanoyl]-1,3-thiazolidine-4-carboxamide] |  |  | 111 | 31.7 | 35.98 | 101 | 45.41 |
| Cc1ccccc1CNC(=O)[C@H]1N(C(=O)[C@@H](O)[C@H](Cc2ccccc2)NC(=O)c2cccc(O)c2C)CSC1(C)C [Compound of example 37, (R)-N-(2-methylbenzyl)-3-[(2S,3S)-3-(3-hydroxy-2-methylbenzoyl)amino-2-hydroxy-4-phenylbutanoyl]-5,5-dimethyl-1,3-thiazolidine-4-carboxamide] | 55 | 41.55 | 131 | 74.7 | 92.63 |  |  |
| CSC[C@H](NC(=O)COc1cccc2cnccc12)C(=O)N[C@@H](Cc1ccccc1)[C@H](O)C(=O)N1CSC[C@H]1C(=O)NC(C)(C)C [KNI-272, (R)-3-[(2S,3S)-3-(N-(isoquinoline-5-yloxy)acetylmethylthio-L-alanyl)amino-2-hydroxy-4-phenylbutanoyl]1,3-thiazolidine-4-N'-t-butylcarboxamide, reference compound] | 98 | 43.20 | 224 | 23.2 | 25.57 |  |  |
| CCc1c(O)cccc1C(=O)N[C@@H](Cc1ccccc1)[C@H](O)C(=O)N1CSC[C@H]1C(=O)NC(C)(C)C [Compound of example 31, (R)-N-tert-butyl-3-[(2S,3S)-2-hydroxy-3-(2-ethyl-3-hydroxybenzoyl)amino-4-phenylbutanoyl]-1,3-thiazolidine-4-carboxamide] | 99 | 36.24 | 276 | 96.0 | 73.81 |  |  |
